Publication PMC9917560, “Design, Synthesis and Antimicrobial Evaluation of New N-(1-Hydroxy-1,3-dihydrobenzo[c][1,2]oxaborol-6-yl)(hetero)aryl-2-carboxamides as Potential Inhibitors of Mycobacterial Leucyl-tRNA Synthetase” (International Journal of Molecular Sciences, 2023)
Like-named read-outs stand apart in the source and are kept apart here. Marks after values point to notes of the source that are not given here.

Legend:
Mtb H37Rv = tested on: Mtb H37Rv; design: method as in PMID 27503647; conditions: compounds synthesized and evaluated by Palencia et al. ref [13]; cited from earlier work
[1] = tested on: Trichophyton interdigitale CCM 8377 (ATCC 9533); test: Antifungal microdilution broth (EUCAST); format: cell-based; conditions: Trichophyton interdigitale, read-out: MIC Trichophyton interdigitale
[2] = tested on: methicillin-resistant Staphylococcus aureus subsp. aureus (MRSA) CCM 4750 (ATCC 43300); test: microbe, parasite or virus in culture; format: cell-based; conditions: read-out: MIC Methicillin-resistant Staphylococcus aureus subsp. aureus
[3] = tested on: Mycobacterium tuberculosis H37Ra ITM-M006710 (ATCC 9431); test: Antimycobacterial microdilution (resazurin) vs Mtb H37Ra; format: cell-based; conditions: Middlebrook 7H9, resazurin, recalculated from µg/mL, read-out: MIC Mtb H37Ra
[4] = tested on: Escherichia coli CCM 3954 (ATCC 25922); test: Antibacterial microdilution broth (EUCAST); format: cell-based; conditions: Escherichia coli, read-out: MIC Escherichia coli
[5] = tested on: Mtb IZAK (MDR clinical isolate); test: microbe, parasite or virus in culture; format: cell-based; conditions: Mycobacterium tuberculosis, read-out: MIC Mtb IZAK
[6] = tested on: Staphylococcus epidermidis CCM 4418 (ATCC 12228); test: Antibacterial microdilution broth (EUCAST); format: cell-based; conditions: read-out: MIC Staphylococcus epidermidis
[7] = tested on: Enterococcus faecalis CCM 4224 (ATCC 29212); test: Antibacterial microdilution broth (EUCAST); format: cell-based; conditions: read-out: MIC Enterococcus faecalis
[8] = tested on: Mtb MATI (MDR clinical isolate); test: microbe, parasite or virus in culture; format: cell-based; conditions: Mycobacterium tuberculosis, read-out: MIC Mtb MATI
[9] = tested on: Mycobacterium avium DSM 44,156 (ATCC 25291); test: Antimycobacterial microdilution (resazurin) vs M. avium; format: cell-based; conditions: Mycobacterium avium, Middlebrook 7H9, resazurin; read-out: MIC M. avium
[10] = tested on: Mycolicibacterium aurum DSM 43,999 (ATCC 23366); test: Antimycobacterial microdilution (resazurin) vs M. aurum; format: cell-based; conditions: Middlebrook 7H9, resazurin, read-out: MIC M. aurum
[11] = tested on: Mycobacterium tuberculosis H37Rv CNCTC My 331/88 (ATCC 27294); test: Microplate Alamar Blue assay vs Mtb H37Rv; format: cell-based; conditions: Mycobacterium tuberculosis, pH 6.6, MABA, Middlebrook 7H9 pH 6.6, recalculated from µg/mL; read-out: MIC Mtb H37Rv
[12] = tested on: Candida krusei CCM 8271 (ATCC 6258); test: Antifungal microdilution broth (EUCAST); format: cell-based; conditions: Pichia kudriavzevii, read-out: MIC Candida krusei
[13] = tested on: Mycobacterium kansasii DSM 44,162 (ATCC 12478); test: Antimycobacterial microdilution (resazurin) vs M. kansasii; format: cell-based; conditions: Middlebrook 7H9, resazurin, read-out: MIC M. kansasii
[14] = tested on: Candida albicans CCM 8320 (ATCC 24433); test: Antifungal microdilution broth (EUCAST); format: cell-based; conditions: Candida albicans, read-out: MIC Candida albicans
[15] = tested on: Mycolicibacterium smegmatis DSM 43,465 (ATCC 607); test: Antimycobacterial microdilution (resazurin) vs M. smegmatis; format: cell-based; conditions: Middlebrook 7H9, resazurin, read-out: MIC M. smeg.
[16] = tested on: Aspergillus flavus CCM 8363; test: Antifungal microdilution broth (EUCAST); format: cell-based; conditions: Aspergillus flavus, CCM8363, read-out: MIC Aspergillus flavus
[17] = tested on: Klebsiella pneumoniae CCM 4415 (ATCC 10031); test: Antibacterial microdilution broth (EUCAST); format: cell-based; conditions: Klebsiella pneumoniae, read-out: MIC Klebsiella pneumoniae
[18] = tested on: Acinetobacter baumannii DSM 30007 (ATCC 19606); test: Antibacterial microdilution broth (EUCAST); format: cell-based; conditions: read-out: MIC Acinetobacter baumannii
[19] = tested on: Lichtheimia corymbifera CCM 8077; test: Antifungal microdilution broth (EUCAST); format: cell-based; conditions: Lichtheimia corymbifera, CCM8077, read-out: MIC Lichtheimia corymbifera
[20] = tested on: Pseudomonas aeruginosa CCM 3955 (ATCC 27853); test: Antibacterial microdilution broth (EUCAST); format: cell-based; conditions: read-out: MIC Pseudomonas aeruginosa
[21] = tested on: Candida parapsilosis CCM 8260 (ATCC 22019); test: Antifungal microdilution broth (EUCAST); format: cell-based; conditions: Lodderomyces parapsilosis, read-out: MIC Candida parapsilosis
HepG2 cell line = test: Cytotoxicity screening, CellTiter 96 assay; conditions: Homo sapiens, HepG2, 24 h, read-out: IC50 HepG2
[22] = tested on: Staphylococcus aureus subsp. aureus CCM 4223 (ATCC 29213); test: Antibacterial microdilution broth (EUCAST); format: cell-based; conditions: read-out: MIC Staphylococcus aureus subsp. aureus
[23] = tested on: Candida tropicalis CCM 8264 (ATCC 750); test: Antifungal microdilution broth (EUCAST); format: cell-based; conditions: read-out: MIC Candida tropicalis
[24] = tested on: Aspergillus fumigatus ATCC 204305; test: Antifungal microdilution broth (EUCAST); format: cell-based; conditions: Aspergillus fumigatus, ATCC204305, read-out: MIC Aspergillus fumigatus

3-aminomethylbenzoxaborole [Compound C00022]
11.04 * µM: MIC Mtb H37Rv (Mtb H37Rv)

O=C(Nc1ccc2c(c1)B(O)OC2)c1cncc(Cl)n1 [Compound 4, 6-chloro-N-(1-hydroxy-1,3-dihydrobenzo[c][1,2]oxaborol-6-yl)pyrazine-2-carboxamide]
250.9 to 252.4 °C: melting point
13.5 µM: MIC [10]
125 µM: MIC ([22]; 24h incubation) | MIC ([22]; 48h incubation)
108 µM: MIC [3]
500 µM: MIC ([6]; 24h incubation) | MIC ([6]; 48h incubation)
250 µM: MIC ([2]; 24 h) | MIC ([2]; 48 h)
27 µM: MIC [9] | MIC [13] | MIC [15]
> 1000 µM: IC50 (HepG2 cell line)
86.4 µM: MIC [5] | MIC [8] | MIC [11]
> 500 µM: MIC ([1]; 72h incubation) | MIC ([1]; 120h incubation) | MIC ([4]; 24h incubation) | MIC ([4]; 48h incubation) | MIC ([7]; 24h incubation) | MIC ([7]; 48h incubation) | MIC ([12]; 24h incubation) | MIC ([12]; 48h incubation) | MIC ([14]; 24h incubation) | MIC ([14]; 48h incubation) | MIC ([16]; 24h incubation) | MIC ([16]; 48h incubation) | MIC ([17]; 24h incubation) | MIC ([17]; 48h incubation) | MIC ([18]; 24h incubation) | MIC ([18]; 48h incubation) | MIC ([19]; 24h incubation) | MIC ([19]; 48h incubation) | MIC ([20]; 24h incubation) | MIC ([20]; 48h incubation) | MIC ([21]; 24h incubation) | MIC ([21]; 48h incubation) | MIC ([23]; 24h incubation) | MIC ([23]; 48h incubation) | MIC ([24]; 24h incubation) | MIC ([24]; 48h incubation)

O=C(Nc1ccc2c(c1)B(O)OC2)c1cnc(Cl)cn1 [Compound 5, 5-chloro-N-(1-hydroxy-1,3-dihydrobenzo[c][1,2]oxaborol-6-yl)pyrazine-2-carboxamide]
43.2 µM: MIC [5] | MIC [8]
54 µM: MIC [9] | MIC [15]
> 500 µM: MIC ([1]; 72h incubation) | MIC ([1]; 120h incubation) | MIC ([2]; 24 h) | MIC ([2]; 48 h) | MIC ([4]; 24h incubation) | MIC ([4]; 48h incubation) | MIC ([6]; 24h incubation) | MIC ([6]; 48h incubation) | MIC ([7]; 24h incubation) | MIC ([7]; 48h incubation) | MIC ([12]; 24h incubation) | MIC ([12]; 48h incubation) | MIC ([14]; 24h incubation) | MIC ([14]; 48h incubation) | MIC ([16]; 24h incubation) | MIC ([16]; 48h incubation) | MIC ([17]; 24h incubation) | MIC ([17]; 48h incubation) | MIC ([18]; 24h incubation) | MIC ([18]; 48h incubation) | MIC ([19]; 24h incubation) | MIC ([19]; 48h incubation) | MIC ([20]; 24h incubation) | MIC ([20]; 48h incubation) | MIC ([21]; 24h incubation) | MIC ([21]; 48h incubation) | MIC ([22]; 24h incubation) | MIC ([22]; 48h incubation) | MIC ([23]; 24h incubation) | MIC ([23]; 48h incubation) | MIC ([24]; 24h incubation) | MIC ([24]; 48h incubation)
82.4 µM: IC50 (HepG2 cell line)
27 µM: MIC [3]
13.5 µM: MIC [10]
108 µM: MIC [13]
233.8 to 235.3 °C: melting point
21.6 µM: MIC [11]
